Tests used:
GLP-1R [1] = target: T1, GLP-1R (Rattus norvegicus, UniProt P32301); assay: Testing the expression of reporter gene (luciferase under cAMP response element) in HEK 293/GLP-1R+Luc cells; format: cell-based; conditions: 6 h
T1 construct: expressed in transfected cells; host or cells: HEK 293 (human embryonic kidney), stably transfected; self-made by National New Drugs Screening Center
T1 sequence (P32301 22-463): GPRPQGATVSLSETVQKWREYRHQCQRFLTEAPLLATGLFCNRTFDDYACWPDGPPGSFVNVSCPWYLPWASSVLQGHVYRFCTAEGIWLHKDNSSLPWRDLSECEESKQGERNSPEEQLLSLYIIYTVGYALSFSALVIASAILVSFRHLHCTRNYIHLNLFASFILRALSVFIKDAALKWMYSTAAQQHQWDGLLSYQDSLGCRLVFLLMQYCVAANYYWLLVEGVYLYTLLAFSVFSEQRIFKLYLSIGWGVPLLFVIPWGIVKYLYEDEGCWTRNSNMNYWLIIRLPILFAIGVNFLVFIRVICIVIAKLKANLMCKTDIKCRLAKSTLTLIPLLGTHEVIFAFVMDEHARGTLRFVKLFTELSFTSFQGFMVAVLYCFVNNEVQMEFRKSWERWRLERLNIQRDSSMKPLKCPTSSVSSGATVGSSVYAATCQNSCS
Description: 1. Testing the Expression of Reporter Gene
(§1) GLP-1R is a G-protein coupling receptor. When GLP-1R binds to an agonist, the Ga subunit of G protein is activated to stimulate adenylate cyclase, which leads to the increase in the concentration of intracellular cAMP. Since the promoter region of proinsulin gene has a cAMP response element, cAMP promotes, after binding to this response element, the transcription of the proinsulin gene, thereby stimulating the expression and secretion of insulin (Diabetes, 2000, Vol. 49: 1156-1164). The experimental method employs a human embryonal nephric cell strain (HEK 293) which is stably transfected with the expression vector of GLP-1R gene and the expression vector of luciferase reporter gene under the regulation of cAMP response element, to detect its response to the candidate compound (Cell Biology, 1992, Vol. 89: 8641-8645; Proc. Natl. Acad. Sci. U.S.A. 1987, Vol. 84: 3434-3438). When screening the candidate compounds, the compounds that may induce the expression of luciferase reporter gene are regarded as having the activity of activating GLP-1R.
(§2) Cell strain: HEK 293/GLP-1R+Luc cell strain, in which GLP-1R and luciferase are stably expressed (self-made by National New Drugs Screening Center);
HEK 293/GLP-1R+Luc cells were inoculated, in a quantity of 20,000/100 μl/well, into a 96-well culture plate, and cultured at 37° C. overnight with a DMEM culture medium containing 10% fetal bovine serum and 500 μg/ml G418. […] The culture was performed under the conditions of 37° C., 5% CO2 for 6 h. Thereafter, the activity of luciferase was detected according to the specification in the kit of Steady-Glo™ luciferase analytic system, and the reading was performed by using a Victor^2 plate-reading machine.

GLP-1R [2] = target: T1, GLP-1R; assay: Determination of the concentration of intracellular cAMP (CatchPoint Cyclic AMP kit) in HEK 293/GLP-1R+Luc cells; format: cell-based; conditions: 10 min
Description: 2. Determination of the Concentration of Intracellular cAMP
Since the concentration of intracellular cAMP can only be indirectly evaluated according to the above method for detecting the activation of reporter gene, it is necessary to determine the influence of active compounds on the concentration of intracellular cAMP by using a cAMP-determining kit, i.e., a functional re-screening.
cAMP-determining kit (Molecular Devices Co., CatchPoint® Cyclic AMP kit);
HEK 293/GLP-1R+Luc cell strain, in which GLP-1R and luciferase are stably expressed (self-made by National New Drugs Screening Center);
HEK 293/GLP-1R+Luc cells were inoculated, in a quantity of 20,000/100 μl/well, into a 96-well culture plate, and cultured at 37° C. overnight. The candidate compounds S4P, S3-20-32, S3-11-14, S6-14 and S8 were respectively diluted to a certain concentration gradient, which were then added, in a quantity of […], into the above 96-well culture plate. The culture was performed under the conditions of 37° C., 5% CO2 for 10 min. Thereafter, the concentration of intracellular cAMP was determined according to the specification in CatchPoint® Cyclic AMP kit.
The lower the reading was, the higher the concentration of intracellular cAMP was.

GLP-1R [3] = target: T1, GLP-1R; assay: Antagonistic experiment with Exendin9-39 on S4P-induced reporter gene expression in HEK 293/GLP-1R+Luc cells; format: cell-based
Description: 3. Antagonistic Experiment with Exendin9-39
In order to corroborate that the active compounds had receptor specificity with respect to their activating effects on reporter gene and intracellular cAMP, Exendin9-39 (Eur. J. Pharmacol, 1994, 269: 183-191; Metabolism 2004, 53:252-259.), a specific antagonist of GLP-1R, was used to validate whether it could antagonize the agonistic activity of the above representative compounds to GLP-1R.
as §2
HEK 293/GLP-1R+Luc cells were inoculated, in a quantity of 20,000/100 μl/well, into a 96-well culture plate, and cultured at 37° C. overnight with a DMEM culture medium containing 10% fetal bovine serum and 500 μg/ml G418. Exendin9-39 was diluted to a certain concentration gradient, which was then added, in a quantity of 1 μl/well, into the above 96-well culture plate. The culture was performed under the conditions of 37° C., 5% CO2 for 6 h. Thereafter, the activity of luciferase was detected according to the specification in the kit of Steady-Glo™ luciferase analytic system, and the reading was performed by using a Victor^2 plate-reading machine.

HEK 293/GLP-1R+Luc cells = assay: Cytotoxicity noted in the reporter gene test; format: cell-based, human; conditions: 6 h
Description: as §1, with “When screening the candidate compounds, the compounds that may induce the expression of luciferase reporter gene are regarded as having the activity of activating GLP-1R.” left out
HEK 293/GLP-1R+Luc cells were inoculated, in a quantity of 20,000/100 μl/well, into a 96-well culture plate, and cultured at 37° C. overnight with a DMEM culture medium containing 10% fetal bovine serum and 500 μg/ml G418. […] Thereafter, the activity of luciferase was detected according to the specification in the kit of Steady-Glo™ luciferase analytic system, and the reading was performed by using a Victor^2 plate-reading machine.

[4] = final concentration 0.00001 mg/ml
[5] = final concentration 0.00003 mg/ml
[6] = final concentration 0.0001 mg/ml
[7] = final concentration 0.0003 mg/ml
[8] = final concentration 0.001 mg/ml
[9] = final concentration 0.003 mg/ml

In the case of `COc1cc(C2C(NC(=O)c3ccc(NC(=O)C4CCCC4)cc3)(C(=O)O)C(c3ccc(OC(=O)c4cccs4)c(OC)c3)C2(NC(=O)c2ccc(NC(=O)C3CCCC3)cc2)C(=O)O)ccc1OC(=O)c1cccs1` (centres unmarked) [Compound S4P], the “expression of the reporter gene (% reaction, taking the reaction of 30 nM GLP-1 as 100%)” value (GLP-1R [1]; final concentration 0.000003 mg/ml) is reported as 5.157%, the “expression of the reporter gene (% reaction, taking the reaction of 30 nM GLP-1 as 100%)” value (GLP-1R [1]; [4]) is reported as 5.151% and the “expression of the reporter gene (% reaction, taking the reaction of 30 nM GLP-1 as 100%)” value (GLP-1R [1]; [5]) is reported as 5.276%. The “expression of the reporter gene (% reaction, taking the reaction of 30 nM GLP-1 as 100%)” value (GLP-1R [1]; [6]) was 5.697%, the “expression of the reporter gene (% reaction, taking the reaction of 30 nM GLP-1 as 100%)” value (GLP-1R [1]; [7]) was 10.19% and the “expression of the reporter gene (% reaction, taking the reaction of 30 nM GLP-1 as 100%)” value (GLP-1R [1]; [8]) was 22.23%. For the same compound, the “expression of the reporter gene (% reaction, taking the reaction of 30 nM GLP-1 as 100%)” value (GLP-1R [1]; [9]) was 35.55%, the “expression of the reporter gene (% reaction, taking the reaction of 30 nM GLP-1 as 100%)” value (GLP-1R [1]; final concentration 0.01 mg/ml) was 41.19% and the “concentration of the intracellular cAMP (relative fluoresence intensity; lower reading = higher cAMP)” value (GLP-1R [2]; [4]) was 3536.618 RFU. The “concentration of the intracellular cAMP (relative fluoresence intensity; lower reading = higher cAMP)” value (GLP-1R [2]; [5]) was 2924.461 RFU, the “concentration of the intracellular cAMP (relative fluoresence intensity; lower reading = higher cAMP)” value (GLP-1R [2]; [6]) was 2985.794 RFU and the “concentration of the intracellular cAMP (relative fluoresence intensity; lower reading = higher cAMP)” value (GLP-1R [2]; [7]) was 2708.597 RFU. The “concentration of the intracellular cAMP (relative fluoresence intensity; lower reading = higher cAMP)” value (GLP-1R [2]; [8]) was 1910.855 RFU, the “concentration of the intracellular cAMP (relative fluoresence intensity; lower reading = higher cAMP)” value (GLP-1R [2]; [9]) was 2072.988 RFU and the “concentration of the intracellular cAMP (relative fluoresence intensity; lower reading = higher cAMP)” value (GLP-1R [2]; final concentration 0.01 mg/ml) was 2310.616 RFU. For the same compound, the “concentration of the intracellular cAMP (relative fluoresence intensity; lower reading = higher cAMP)” value (GLP-1R [2]; final concentration 0.03 mg/ml) was 2480.017 RFU, the “antagonistic effect of Exendin9-39 on S4P (% reaction, taking the reaction of 3 μM S4P as 100%)” value (GLP-1R [3]; Exendin9-39 final concentration 0.03 nM) was 101.8115% and the “antagonistic effect of Exendin9-39 on S4P (% reaction, taking the reaction of 3 μM S4P as 100%)” value (GLP-1R [3]; Exendin9-39 final concentration 0.1 nM) was 96.64%. The “antagonistic effect of Exendin9-39 on S4P (% reaction, taking the reaction of 3 μM S4P as 100%)” value (GLP-1R [3]; Exendin9-39 final concentration 0.3 nM) was 83.84%, the “antagonistic effect of Exendin9-39 on S4P (% reaction, taking the reaction of 3 μM S4P as 100%)” value (GLP-1R [3]; Exendin9-39 final concentration 1 nM) was 90.78% and the “antagonistic effect of Exendin9-39 on S4P (% reaction, taking the reaction of 3 μM S4P as 100%)” value (GLP-1R [3]; Exendin9-39 final concentration 3 nM) was 72.84%. The “antagonistic effect of Exendin9-39 on S4P (% reaction, taking the reaction of 3 μM S4P as 100%)” value (GLP-1R [3]; Exendin9-39 final concentration 10 nM) was 52.48%, the “antagonistic effect of Exendin9-39 on S4P (% reaction, taking the reaction of 3 μM S4P as 100%)” value (GLP-1R [3]; Exendin9-39 final concentration 30 nM) was 32.33% and the “antagonistic effect of Exendin9-39 on S4P (% reaction, taking the reaction of 3 μM S4P as 100%)” value (GLP-1R [3]; Exendin9-39 final concentration 100 nM) was 18.77%. For the same compound, the “antagonistic effect of Exendin9-39 on S4P (% reaction, taking the reaction of 3 μM S4P as 100%)” value (GLP-1R [3]; Exendin9-39 final concentration 300 nM) was 15.97%, the “antagonistic effect of Exendin9-39 on S4P (% reaction, taking the reaction of 3 μM S4P as 100%)” value (GLP-1R [3]; Exendin9-39 final concentration 1000 nM) was 27.97% and the “antagonistic effect of Exendin9-39 on S4P (% reaction, taking the reaction of 3 μM S4P as 100%)” value (GLP-1R [3]; Exendin9-39 final concentration 3000 nM) was 14.57%. For the same compound, the “antagonistic effect of Exendin9-39 on S4P (% reaction, taking the reaction of 3 μM S4P as 100%)” value (GLP-1R [3]; Exendin9-39 final concentration 10000 nM) was 15.22%, the “receptor specificity of the biological activity” value (GLP-1R [3]; antagonised by Exendin9-39) was “mediated by GLP-1R” and the “cytotoxicity in the reporter gene test” value (HEK 293/GLP-1R+Luc cells; final concentration 0.03 mg/ml) was “cytotoxic”. The “cytotoxicity in the reporter gene test” value (HEK 293/GLP-1R+Luc cells; final concentration 0.1 mg/ml) was “cytotoxic”.
Exendin9-39 [reference compound] was tested, and the “effect on the expression of reporter gene induced by S4P” value (GLP-1R [3]; Table 3, FIG. 6) was “inhibit, in a dose-dependent manner”.

— patent publication US8039492B2, “Substituted cyclic compound, its preparation process and its medical use” (Shanghai Institute of Materia Medica, Chinese Academy of …, priority 2005, dated 2011)
